From patent US10344060B2 (priority 2013, dated 2019)
Several values for one entry are separate records, joined by “and”; a condition that tells them apart may be missing. Equal entries are not always repeated.

What follows are molecules tested against hNav1.7 (Homo sapiens, UniProt Q15858) (assay: cell-based). Settings: ratio of IonWorks Quattro IC50 values, Nav1.4 over Nav1.7.
Chain of hNav1.7 (Q15858 whole entry): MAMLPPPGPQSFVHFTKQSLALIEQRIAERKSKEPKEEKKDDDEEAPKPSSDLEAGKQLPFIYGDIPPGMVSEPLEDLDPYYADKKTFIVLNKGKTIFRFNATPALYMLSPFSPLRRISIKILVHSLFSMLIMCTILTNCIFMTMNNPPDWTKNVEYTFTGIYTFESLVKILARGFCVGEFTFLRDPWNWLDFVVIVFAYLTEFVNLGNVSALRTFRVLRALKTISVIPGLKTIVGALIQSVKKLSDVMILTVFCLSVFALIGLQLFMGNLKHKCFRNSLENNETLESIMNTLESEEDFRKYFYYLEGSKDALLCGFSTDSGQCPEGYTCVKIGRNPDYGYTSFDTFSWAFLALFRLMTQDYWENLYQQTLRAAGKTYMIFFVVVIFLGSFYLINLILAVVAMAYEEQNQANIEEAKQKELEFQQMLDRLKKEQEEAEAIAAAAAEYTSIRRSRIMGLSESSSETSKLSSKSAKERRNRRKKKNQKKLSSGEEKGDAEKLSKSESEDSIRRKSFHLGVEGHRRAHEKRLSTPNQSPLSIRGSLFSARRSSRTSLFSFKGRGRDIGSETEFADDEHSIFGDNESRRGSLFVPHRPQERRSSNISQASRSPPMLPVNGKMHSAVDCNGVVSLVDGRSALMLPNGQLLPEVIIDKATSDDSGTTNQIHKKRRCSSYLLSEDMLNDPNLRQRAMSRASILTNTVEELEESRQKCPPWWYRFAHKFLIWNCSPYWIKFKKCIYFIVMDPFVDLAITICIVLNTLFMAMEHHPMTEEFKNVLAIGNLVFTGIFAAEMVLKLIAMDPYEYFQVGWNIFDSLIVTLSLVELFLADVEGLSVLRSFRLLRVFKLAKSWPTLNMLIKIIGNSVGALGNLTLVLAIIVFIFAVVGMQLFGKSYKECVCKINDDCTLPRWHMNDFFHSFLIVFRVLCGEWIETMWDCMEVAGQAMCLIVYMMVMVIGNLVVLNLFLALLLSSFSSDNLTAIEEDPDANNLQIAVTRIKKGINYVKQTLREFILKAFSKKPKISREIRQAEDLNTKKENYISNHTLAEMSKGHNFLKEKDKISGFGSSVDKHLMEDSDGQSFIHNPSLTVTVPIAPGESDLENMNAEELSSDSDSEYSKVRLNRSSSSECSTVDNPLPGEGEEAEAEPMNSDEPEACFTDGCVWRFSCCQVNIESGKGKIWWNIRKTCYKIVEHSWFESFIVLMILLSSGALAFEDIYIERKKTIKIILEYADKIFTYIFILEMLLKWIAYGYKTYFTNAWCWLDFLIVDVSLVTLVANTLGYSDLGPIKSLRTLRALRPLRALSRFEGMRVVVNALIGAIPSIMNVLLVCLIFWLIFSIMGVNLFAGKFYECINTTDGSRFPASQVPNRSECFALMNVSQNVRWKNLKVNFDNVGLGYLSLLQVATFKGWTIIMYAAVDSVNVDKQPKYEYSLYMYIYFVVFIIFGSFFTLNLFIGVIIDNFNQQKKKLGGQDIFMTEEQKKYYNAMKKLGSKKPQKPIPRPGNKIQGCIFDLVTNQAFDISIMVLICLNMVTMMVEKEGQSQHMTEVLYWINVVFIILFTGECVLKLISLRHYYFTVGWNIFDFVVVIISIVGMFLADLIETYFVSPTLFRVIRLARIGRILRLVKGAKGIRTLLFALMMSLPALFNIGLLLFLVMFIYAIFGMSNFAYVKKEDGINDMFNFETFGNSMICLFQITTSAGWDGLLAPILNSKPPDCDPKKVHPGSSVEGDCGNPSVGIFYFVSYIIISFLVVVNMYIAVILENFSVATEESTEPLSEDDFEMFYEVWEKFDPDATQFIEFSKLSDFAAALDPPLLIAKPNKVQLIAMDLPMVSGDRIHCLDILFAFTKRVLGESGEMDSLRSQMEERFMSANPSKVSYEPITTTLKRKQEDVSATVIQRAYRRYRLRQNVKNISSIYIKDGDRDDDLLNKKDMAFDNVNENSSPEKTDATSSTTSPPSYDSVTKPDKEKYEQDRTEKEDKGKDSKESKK

SMILES	Nav1.4/Nav1.7
CCC[C@@H]1NC(=O)[C@H](CC(C)C)NC(=O)CNC(=O)[C@H](CCC(=O)O)NC(=O)[C@@H]2CSSC[C@H](NC(=O)[C@@H](N)Cc3ccc(O)cc3)C(=O)N[C@@H](CCC(N)=O)C(=O)N[C@@H](CCCCN)C(=O)N[C@@H](Cc3c[nH]c4ccccc34)C(=O)N[C@@H](CCSC)C(=O)N[C@@H](Cc3c[nH]c4ccccc34)C(=O)N[C@@H]([C@@H](C)O)C(=O)N[C@H]3CSSC[C@H](NC1=O)C(=O)N[C@@H](CCCCN)C(=O)N[C@@H](CC(C)C)C(=O)N[C@@H](Cc1c[nH]c4ccccc14)C(=O)N[C@H](C(=O)N[C@@H](CCCNC(=N)N)C(=O)N[C@@H](CCCCN)C(=O)N[C@H](C(=O)N[C@H](C(N)=O)[C@@H](C)CC)[C@@H](C)CC)CSSC[C@H](NC(=O)[C@H](C)NC(=O)[C@H](CCCNC(=N)N)NC(=O)[C@H](CCCCN)NC(=O)[C@H](CO)NC(=O)[C@H](CC(=O)O)NC3=O)C(=O)N2 [compound 123]	19
CC[C@H](C)[C@H](NC(=O)[C@@H](NC(=O)[C@H](CCCCN)NC(=O)[C@H](CCCNC(=N)N)NC(=O)[C@@H]1CSSC[C@@H]2NC(=O)[C@H](C)NC(=O)[C@H](CCCNC(=N)N)NC(=O)[C@H](CCCCN)NC(=O)[C@H](CO)NC(=O)[C@H](CC(=O)O)NC(=O)[C@@H]3CSSC[C@H](NC(=O)[C@H](CC(C)C)NC(=O)[C@H](CC(C)C)NC(=O)CNC(=O)[C@H](CCC(=O)O)NC(=O)[C@H](CSSC[C@H](NC(=O)[C@@H](N)Cc4ccc(O)cc4)C(=O)N[C@@H](CCC(N)=O)C(=O)N[C@@H](CCCCN)C(=O)N[C@@H](Cc4c[nH]c5ccccc45)C(=O)N[C@@H](CCSC)C(=O)N[C@@H](Cc4c[nH]c5ccccc45)C(=O)N[C@@H]([C@@H](C)O)C(=O)N3)NC2=O)C(=O)N[C@@H](CCCCN)C(=O)N[C@@H](CC(C)C)C(=O)N[C@@H](Cc2c[nH]c3ccccc23)C(=O)N1)[C@@H](C)CC)C(N)=O [compound 119]	14
CC[C@H](C)[C@H](NC(=O)[C@@H](NC(=O)[C@H](CCCCN)NC(=O)[C@H](CCCNC(=N)N)NC(=O)[C@@H]1CSSC[C@@H]2NC(=O)[C@H](C)NC(=O)[C@H](CCCNC(=N)N)NC(=O)[C@H](CCCCN)NC(=O)[C@H](CO)NC(=O)[C@H](CC(=O)O)NC(=O)[C@@H]3CSSC[C@H](NC(=O)[C@H](CCCNC(N)=O)NC(=O)[C@H](CC(C)C)NC(=O)CNC(=O)[C@H](CCC(=O)O)NC(=O)[C@H](CSSC[C@H](NC(=O)[C@@H](N)Cc4ccc(O)cc4)C(=O)N[C@@H](CCC(N)=O)C(=O)N[C@@H](CCCCN)C(=O)N[C@@H](Cc4c[nH]c5ccccc45)C(=O)N[C@@H](CCSC)C(=O)N[C@@H](Cc4c[nH]c5ccccc45)C(=O)N[C@@H]([C@@H](C)O)C(=O)N3)NC2=O)C(=O)N[C@@H](CCCCN)C(=O)N[C@@H](CC(C)C)C(=O)N[C@@H](Cc2c[nH]c3ccccc23)C(=O)N1)[C@@H](C)CC)C(N)=O [compound 122]	15
CC[C@H](C)[C@H](NC(=O)[C@H](Cc1ccc(C(=O)O)cc1)NC(=O)[C@H](CCCCN)NC(=O)[C@H](CCCNC(=N)N)NC(=O)[C@@H]1CSSC[C@@H]2NC(=O)[C@H](C)NC(=O)[C@H](CCCNC(=N)N)NC(=O)[C@H](CCCCN)NC(=O)[C@H](CO)NC(=O)[C@H](CC(=O)O)NC(=O)[C@@H]3CSSC[C@H](NC(=O)[C@H](CCC(=O)O)NC(=O)[C@H](CC(C)C)NC(=O)CNC(=O)[C@H](CCC(=O)O)NC(=O)[C@H](CSSC[C@H](NC(=O)[C@@H](N)Cc4ccc(O)cc4)C(=O)N[C@@H](CCC(N)=O)C(=O)N[C@@H](CCCCN)C(=O)N[C@@H](Cc4c[nH]c5ccccc45)C(=O)N[C@@H](CCSC)C(=O)N[C@@H](Cc4c[nH]c5ccccc45)C(=O)N[C@@H]([C@@H](C)O)C(=O)N3)NC2=O)C(=O)N[C@@H](CCCCN)C(=O)N[C@@H](CC(C)C)C(=O)N[C@@H](Cc2c[nH]c3ccccc23)C(=O)N1)C(N)=O [compound 127]	2
CC[C@H](C)[C@H](NC(=O)[C@@H](NC(=O)[C@H](CCCCN)NC(=O)[C@H](CCCNC(=N)N)NC(=O)[C@@H]1CSSC[C@@H]2NC(=O)[C@H](C)NC(=O)[C@H](CCCNC(=N)N)NC(=O)[C@H](CCCCN)NC(=O)[C@H](CO)NC(=O)[C@H](CC(=O)O)NC(=O)[C@@H]3CSSC[C@H](NC(=O)[C@H]([C@@H](C)CC)NC(=O)[C@H](CC(C)C)NC(=O)CNC(=O)[C@H](CCC(=O)O)NC(=O)[C@H](CSSC[C@H](NC(=O)[C@@H](N)Cc4ccc(O)cc4)C(=O)N[C@@H](CCC(N)=O)C(=O)N[C@@H](CCCCN)C(=O)N[C@@H](Cc4c[nH]c5ccccc45)C(=O)N[C@@H](CCSC)C(=O)N[C@@H](Cc4c[nH]c5ccccc45)C(=O)N[C@@H]([C@@H](C)O)C(=O)N3)NC2=O)C(=O)N[C@@H](CCCCN)C(=O)N[C@@H](CC(C)C)C(=O)N[C@@H](Cc2c[nH]c3ccccc23)C(=O)N1)[C@@H](C)CC)C(N)=O [compound 118]	15
CC[C@H](C)[C@H](NC(=O)[C@H](CCC(=O)O)NC(=O)[C@H](CCCCN)NC(=O)[C@H](CCCNC(=N)N)NC(=O)[C@@H]1CSSC[C@@H]2NC(=O)[C@H](C)NC(=O)[C@H](CCCNC(=N)N)NC(=O)[C@H](CCCCN)NC(=O)[C@H](CO)NC(=O)[C@H](CC(=O)O)NC(=O)[C@@H]3CSSC[C@H](NC(=O)[C@H](CCC(=O)O)NC(=O)[C@H](CC(C)C)NC(=O)CNC(=O)[C@H](CCC(=O)O)NC(=O)[C@H](CSSC[C@H](NC(=O)[C@@H](N)Cc4ccc(O)cc4)C(=O)N[C@@H](CCC(N)=O)C(=O)N[C@@H](CCCCN)C(=O)N[C@@H](Cc4c[nH]c5ccccc45)C(=O)N[C@@H](CCSC)C(=O)N[C@@H](Cc4c[nH]c5ccccc45)C(=O)N[C@@H]([C@@H](C)O)C(=O)N3)NC2=O)C(=O)N[C@@H](CCCCN)C(=O)N[C@@H](CC(C)C)C(=O)N[C@@H](Cc2c[nH]c3ccccc23)C(=O)N1)C(N)=O [compound 126]	5 and 3
CC[C@H](C)[C@H](NC(=O)[C@H](CCCCN)NC(=O)[C@H](CCCNC(=N)N)NC(=O)[C@@H]1CSSC[C@@H]2NC(=O)[C@H](C)NC(=O)[C@H](CCCNC(=N)N)NC(=O)[C@H](CCCCN)NC(=O)[C@H](CO)NC(=O)[C@H](CC(=O)O)NC(=O)[C@@H]3CSSC[C@H](NC(=O)[C@H](CCC(=O)O)NC(=O)[C@H](CC(C)C)NC(=O)CNC(=O)[C@H](CCC(=O)O)NC(=O)[C@H](CSSC[C@H](NC(=O)[C@@H](N)Cc4ccc(O)cc4)C(=O)N[C@@H](CCC(N)=O)C(=O)N[C@@H](CCCCN)C(=O)N[C@@H](Cc4c[nH]c5ccccc45)C(=O)N[C@@H](CCSC)C(=O)N[C@@H](Cc4c[nH]c5ccccc45)C(=O)N[C@@H]([C@@H](C)O)C(=O)N3)NC2=O)C(=O)N[C@@H](CCCCN)C(=O)N[C@@H](CC(C)C)C(=O)N[C@@H](Cc2c[nH]c3ccccc23)C(=O)N1)C(=O)N[C@H](C(=O)N[C@@H](Cc1c[nH]c2ccccc12)C(N)=O)[C@@H](C)CC [compound 113]	30
CC[C@H](C)[C@H](NC(=O)[C@@H](NC(=O)[C@H](CCCCN)NC(=O)[C@H](CCCNC(=N)N)NC(=O)[C@@H]1CSSC[C@@H]2NC(=O)[C@H](C)NC(=O)[C@H](CCCNC(=N)N)NC(=O)[C@H](CCCCN)NC(=O)[C@H](CO)NC(=O)[C@H](CC(=O)O)NC(=O)[C@@H]3CSSC[C@H](NC(=O)[C@H](CO)NC(=O)[C@H](CC(C)C)NC(=O)CNC(=O)[C@H](CCC(=O)O)NC(=O)[C@H](CSSC[C@H](NC(=O)[C@@H](N)Cc4ccc(O)cc4)C(=O)N[C@@H](CCC(N)=O)C(=O)N[C@@H](CCCCN)C(=O)N[C@@H](Cc4c[nH]c5ccccc45)C(=O)N[C@@H](CCSC)C(=O)N[C@@H](Cc4c[nH]c5ccccc45)C(=O)N[C@@H]([C@@H](C)O)C(=O)N3)NC2=O)C(=O)N[C@@H](CCCCN)C(=O)N[C@@H](CC(C)C)C(=O)N[C@@H](Cc2c[nH]c3ccccc23)C(=O)N1)[C@@H](C)CC)C(N)=O [compound 125]	17

Same assay, conditions: ratio of IonWorks Quattro IC50 values; Table 8

SMILES	Nav1.4/Nav1.7
CC[C@H](C)[C@H](NC(=O)[C@H](Cc1ccc(O)cc1)NC(=O)[C@H](CCCCN)NC(=O)[C@H](CCCNC(=N)N)NC(=O)[C@@H]1CSSC[C@@H]2NC(=O)[C@H](C)NC(=O)[C@H](CCCNC(=N)N)NC(=O)[C@H](CCCCN)NC(=O)[C@H](CO)NC(=O)[C@H](CC(=O)O)NC(=O)[C@@H]3CSSC[C@H](NC(=O)[C@H](CCC(=O)O)NC(=O)[C@H](CC(C)C)NC(=O)CNC(=O)[C@H](CCC(=O)O)NC(=O)[C@H](CSSC[C@H](NC(=O)[C@@H](N)Cc4ccc(O)cc4)C(=O)N[C@@H](CCC(N)=O)C(=O)N[C@@H](CCCCN)C(=O)N[C@@H](Cc4c[nH]c5ccccc45)C(=O)N[C@@H](CCSC)C(=O)N[C@@H](CC(N)=O)C(=O)N[C@@H]([C@@H](C)O)C(=O)N3)NC2=O)C(=O)N[C@@H](CCCCN)C(=O)N[C@@H](CC(C)C)C(=O)N[C@@H](Cc2c[nH]c3ccccc23)C(=O)N1)C(N)=O [compound 215]	1

What follows are molecules tested against hNav1.4 (Homo sapiens, UniProt P35499) (assay: cell-based). Settings: ratio of IonWorks Quattro IC50 values; Table 9.
Format: cell-based

Chain of hNav1.4 (P35499 whole entry): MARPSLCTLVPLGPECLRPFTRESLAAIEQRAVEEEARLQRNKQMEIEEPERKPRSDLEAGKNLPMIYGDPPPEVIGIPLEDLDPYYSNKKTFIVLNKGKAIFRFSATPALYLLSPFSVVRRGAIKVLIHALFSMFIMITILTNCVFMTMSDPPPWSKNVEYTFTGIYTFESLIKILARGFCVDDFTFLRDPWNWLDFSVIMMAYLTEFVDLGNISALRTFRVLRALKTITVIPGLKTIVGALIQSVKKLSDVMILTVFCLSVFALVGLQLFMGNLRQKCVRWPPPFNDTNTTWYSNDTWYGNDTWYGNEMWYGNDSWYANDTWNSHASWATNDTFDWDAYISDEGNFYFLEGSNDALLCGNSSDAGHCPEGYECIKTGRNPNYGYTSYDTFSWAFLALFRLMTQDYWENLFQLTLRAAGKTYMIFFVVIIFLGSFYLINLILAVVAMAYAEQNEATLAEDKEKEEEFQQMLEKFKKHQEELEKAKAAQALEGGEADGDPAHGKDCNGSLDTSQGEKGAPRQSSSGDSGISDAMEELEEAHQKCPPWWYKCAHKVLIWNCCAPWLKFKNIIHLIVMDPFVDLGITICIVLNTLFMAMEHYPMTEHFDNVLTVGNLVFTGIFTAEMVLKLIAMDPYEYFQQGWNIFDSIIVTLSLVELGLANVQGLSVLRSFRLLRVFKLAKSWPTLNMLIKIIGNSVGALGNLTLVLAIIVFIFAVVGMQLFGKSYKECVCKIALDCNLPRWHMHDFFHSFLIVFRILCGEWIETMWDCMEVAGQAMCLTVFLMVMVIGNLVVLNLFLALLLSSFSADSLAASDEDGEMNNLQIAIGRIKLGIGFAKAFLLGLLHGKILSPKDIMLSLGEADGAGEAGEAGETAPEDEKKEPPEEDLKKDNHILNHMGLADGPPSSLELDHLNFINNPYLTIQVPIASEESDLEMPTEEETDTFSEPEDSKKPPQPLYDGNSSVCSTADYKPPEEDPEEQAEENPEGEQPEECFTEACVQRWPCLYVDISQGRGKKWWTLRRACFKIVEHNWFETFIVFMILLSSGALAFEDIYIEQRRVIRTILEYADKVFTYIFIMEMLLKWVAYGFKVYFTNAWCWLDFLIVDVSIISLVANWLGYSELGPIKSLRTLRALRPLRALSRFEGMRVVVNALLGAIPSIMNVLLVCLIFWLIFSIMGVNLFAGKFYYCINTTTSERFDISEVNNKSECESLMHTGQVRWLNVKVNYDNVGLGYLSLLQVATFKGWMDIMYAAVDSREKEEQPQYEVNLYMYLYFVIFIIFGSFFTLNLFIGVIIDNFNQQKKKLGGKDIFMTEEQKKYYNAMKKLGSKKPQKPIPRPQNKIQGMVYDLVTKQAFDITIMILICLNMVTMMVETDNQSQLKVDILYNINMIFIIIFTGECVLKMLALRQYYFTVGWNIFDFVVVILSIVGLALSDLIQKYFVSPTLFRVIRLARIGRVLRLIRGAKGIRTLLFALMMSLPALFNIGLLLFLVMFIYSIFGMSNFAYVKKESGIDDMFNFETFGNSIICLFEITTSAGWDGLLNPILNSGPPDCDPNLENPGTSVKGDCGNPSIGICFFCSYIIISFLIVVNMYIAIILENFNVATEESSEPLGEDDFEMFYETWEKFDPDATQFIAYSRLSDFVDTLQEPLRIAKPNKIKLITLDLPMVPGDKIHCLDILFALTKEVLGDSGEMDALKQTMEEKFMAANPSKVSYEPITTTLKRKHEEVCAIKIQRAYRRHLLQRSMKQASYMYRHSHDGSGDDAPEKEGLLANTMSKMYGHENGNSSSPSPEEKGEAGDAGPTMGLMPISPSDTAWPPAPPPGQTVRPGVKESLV

SMILES	Nav1.4/Nav1.7
CC[C@H](C)[C@H](NC(=O)[C@@H](NC(=O)[C@H](CCCCN)NC(=O)[C@H](CCCNC(=N)N)NC(=O)[C@@H]1CSSC[C@@H]2NC(=O)[C@H](C)NC(=O)[C@H](CCCNC(=N)N)NC(=O)[C@H](CCCCN)NC(=O)[C@H](CO)NC(=O)[C@H](CC(=O)O)NC(=O)[C@@H]3CSSC[C@H](NC(=O)[C@H](CCC(=O)O)NC(=O)[C@H](CC(C)C)NC(=O)CNC(=O)[C@H](CCC(=O)O)NC(=O)[C@H](CSSC[C@H](NC(=O)[C@@H](N)Cc4cn(CCCOCCOCCOCCOCCOCCOCCOCCOCCOCCOCCN)nn4)C(=O)N[C@@H](CCC(N)=O)C(=O)N[C@@H](CCCCN)C(=O)N[C@@H](Cc4c[nH]c5ccccc45)C(=O)N[C@@H](CCSC)C(=O)N[C@@H](Cc4c[nH]c5ccccc45)C(=O)N[C@@H]([C@@H](C)O)C(=O)N3)NC2=O)C(=O)N[C@@H](CCCCN)C(=O)N[C@@H](CC(C)C)C(=O)N[C@@H](Cc2c[nH]c3ccccc23)C(=O)N1)[C@@H](C)CC)C(N)=O [compound 165]	28
